From patent US20090171592A1, “Homology Models of Mammalian Zinc Transporters and Methods of Using Same” (Brookhaven Science Associates, LLC, priority 2007, published 2009)
pKd: −log10 of the molar value. Where two headings read alike, the source gives them in different places.

Legend:
[1] = target: T1, YiiP (Escherichia coli, UniProt P69380); conditions: cited from earlier work
[2] = target: T1, YiiP; conditions: Kd1 145 μM vs Kd2 0.24 μM
Text: Anomalous difference Fourier maps of native crystals were computed using experimental phases and diffraction data collected at the zinc edge.

[3] = target: T1, YiiP; conditions: cited from earlier work; remark: listed apart in the source

T1 sequence (P69380 whole entry): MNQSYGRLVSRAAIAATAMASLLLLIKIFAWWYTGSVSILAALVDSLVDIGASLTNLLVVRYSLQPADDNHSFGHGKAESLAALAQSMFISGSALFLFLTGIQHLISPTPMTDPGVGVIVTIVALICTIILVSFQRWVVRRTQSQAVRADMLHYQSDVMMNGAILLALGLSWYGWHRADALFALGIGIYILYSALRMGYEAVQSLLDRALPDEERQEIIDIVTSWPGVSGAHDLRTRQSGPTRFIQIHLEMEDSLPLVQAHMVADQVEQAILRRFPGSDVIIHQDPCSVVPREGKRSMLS

For `[Cd+2]` [Cd^2+], the “binding affinities, metal binding mapped to D49 and D157 in the transmembrane domain” value [1] is given as “submicromolar range”.

For `[Zn+2]` [Zn^2+], the “affinity difference between site-Z1 and Z2” value [2] is listed as 604 fold, the “Zn2+ stoichiometry units per YiiP protomer” value ([1]; EDTA pre-treated YiiP) is listed as 2.6 and the “binding affinities, metal binding mapped to D49 and D157 in the transmembrane domain” value [1] is listed as “submicromolar range”. For the same compound, the pKd ([1]; read-out: dissociation constant (Kd, Kd1), low affinity component / site-Z2, low-affinity binding component, intracellular-facing site-Z2) was 3.84, the pKd ([1]; read-out: dissociation constant (Kd, Kd2), high affinity sites / site-Z1, two high affinity Zn2+-binding sites, overall Kd, attributed to site-Z1) was 6.62 and the “turnover rate of Zn2+ transport across the membrane” value ([3]; 30-ms timescale) was 34 s^−. The Km ([3]; read-out: Michaelis-Menten constant (Km) of Zn2+ transport by YiiP) was 310 µM.
